# Assay results from article PMC8615111, “Phenolic Thiazoles with Antioxidant and Antiradical Activity. Synthesis, In Vitro Evaluation, Toxicity, Electrochemical Behavior, Quantum Studies and Antimicrobial Screening” (Antioxidants, 2021).
# Key:
# [1] = Ferric ions (Fe^3+) reducing antioxidant power by cyclic voltammetry
# Method: The evaluated compounds’ stock solutions used were prepared at a concentration of 5 mM. To test their redox properties, dilutions of 0.5 mM and 2 mM were prepared in 0.1 M HClO4 electrolyte (pH = 1.2). Screen-printed electrodes (SPEs; Metrohm DropSens, Oviedo, Spain) (planar electrodes) with graphite and gold working electrodes were used. Cyclic voltammetry (CV) and differential pulse voltammetry (DPV) were the electrochemical methods applied. The experimental conditions for each test are mentioned near the corresponding data (Appendix A).
# (§1) The antioxidant properties were evaluated in terms of their activity against some free radicals, and other compounds reported in the literature, relevant for this purpose, such as: • ferric ions (Fe^3+)—used to test the reduction of the antioxidant character of the compounds; • DPPH˙ free radical– used to test the scavenging effect of the compounds on this radical; • hydrogen peroxide (H2O2)—used to test the scavenging effect of the synthesized molecules on this compound; • 2,2,6,6-tetramethylpiperidinyl-1-oxy (TEMPO)—used to test the scavenging effect of the synthesized molecules on this compound.
# This method is based on the evaluation of the influence of the compound measured by the direct reduction of Fe[(CN)6]^3− to […]. This assay is based on the reduction of Fe^3+ to Fe^2+ due to the action of antioxidants. Based on the electrochemical behavior of the studied compounds, the interaction of Fe^3+ was followed by cyclic voltammetry (CV) via the possible changes of redox peaks characteristic for Fe^3+/Fe^2+ transition after the interaction with antioxidants (if any).
# From the voltammogram of potassium ferricyanide it can be observed that the one-electron transfer process Fe^3+/Fe^2+ occurs at 0.247 V/ 0.150 V in acidic media (red) (Figure A1; Table A1).
# Each compound presents its characteristic peaks (blue line in each figure).
# [2] = TEMPO scavenging by differential pulse voltammetry; details: 2 mM TEMPO, one hour incubation, 0.1 M HClO4, DPV
# Method: as §1
# TEMPO (2,2,6,6-tetramethylpiperidine-N-oxyl) is a stable organic nitroxide radical that has been reported to scavenge carbon-centered radicals.
# Differential pulse voltammetry (DPV) was then applied in order to evaluate the antioxidant effectiveness of the novel compounds through their ability to scavenge the free radical species.
# S. pyogenes ATCC 19615 = assay: Antimicrobial activity, modified microdilution; type: cell-based; details: Streptococcus pyogenes, ATCC19615; S. pyogenes ATCC 19615; read-out: MIC
# Method: (§2) For evaluating the antimicrobial activity of the compounds, […] aerobic microbial strains were used: S. aureus ATCC 25923, S. pyogenes ATCC 19615, P. aeruginosa ATCC 27853, S. enterica ISM 83/37, S. typhimurium ATCC 14028, E. coli ATCC 8739, E. coli ATCC 25922, and C. albicans ATCC 102310 obtained from Food Biotechnology Laboratory, Life Sciences Institute, University of Agricultural Sciences, and Veterinary Medicine Cluj Napoca, where the experiment was performed. The antimicrobial activity of the compounds was determined using a modified microdilution technique, and the followed protocol was previously reported.
# (§3) The antimicrobial activity of the final compounds, against seven aerobic microbial strains (S. aureus ATCC 25923, S. pyogenes ATCC 19615, P. aeruginosa ATCC 27853, S. enterica ISM 83/37, S. typhimurium ATCC 14028, E. coli ATCC 8739, E. coli ATCC 25922), and a fungal strain (C. albicans ATCC 102310), was determined using a modified microdilution technique.
# (§4) The results of the antimicrobial activity evaluation of the compounds, in comparison to norfloxacin and chloramphenicol used as standard antibiotics and fluconazole used as reference antifungal, are depicted in Table 10.
# E. coli ATCC 8739 = assay: Antimicrobial activity, modified microdilution; type: cell-based; details: Escherichia coli, ATCC8739; E. coli ATCC 8739; read-out: MIC
# Method: as §2, §3, §4
# P. aeruginosa ATCC 27853 = assay: Antimicrobial activity, modified microdilution; type: cell-based; details: Pseudomonas aeruginosa, ATCC27853; P. aeruginosa ATCC 27853; read-out: MIC
# Method: as §2, §3, §4
# [3] = tested on: S. typhimurium ATCC 14028; assay: Antimicrobial activity, modified microdilution; type: cell-based; details: Salmonella enterica; S. typhimurium ATCC 14028; read-out: MIC
# Method: as §2, §3, §4
# S. enterica ISM 83/37 = assay: Antimicrobial activity, modified microdilution; type: cell-based; details: Salmonella enterica, ISM83/37
# Method: as §2, §3, §4
# S. aureus ATCC 25923 = assay: Antimicrobial activity, modified microdilution; type: cell-based; details: Staphylococcus aureus, ATCC25923; S. aureus ATCC 25923; read-out: MIC
# Method: as §2, §3, §4
# E. coli ATCC 25922 = assay: Antimicrobial activity, modified microdilution; type: cell-based; details: Escherichia coli, ATCC25922; E. coli ATCC 25922; read-out: MIC
# Method: as §2, §3, §4
# [4] = DPPH˙ radical scavenging by cyclic voltammetry; details: for Ered (V): 2nd Ered column; for Ired (μA): 2nd Ired
# Method: as §1
# The radical scavenging properties of the novel compounds and the other antioxidants were determined using a stock DPPH˙ radical solution prepared in absolute ethanol. The antioxidant samples were mixed with DPPH˙ solution and HClO4 electrolyte and incubated in the dark for 30 min. The remaining redox activity of DPPH was measured by cycling the potential between −0.7 V and 1.2 V, with a scan rate of 0.1 V/s.
# The nitrogen-centered 2-2-diphenyl-1-picrylhydrazyl radical (DPPH˙) based assay is one of the most commonly employed method to evaluate the ability of a compound to scavenge or neutralize free radicals based on the reduction of the radical.
# Taking into account the redox activity of DPPH˙, its diminution by an antioxidant can also be followed by CV, which is expected to show changes in the voltammetric peaks. Figure A5 reports the electrochemical study of initial electrooxidation of DPPH˙ and the novel compounds compared to remaining peaks after their incubation for 30 min. The decrease of all the peaks after mixture incubation indicates the partial consumption of DPPH˙.
# [5] = compound 0.5 mM + Fe^3+/Fe^2+ (0.5 mM potassium ferricyanide), 1st Eox column
# [6] = compound 0.5 mM + Fe^3+/Fe^2+ (0.5 mM potassium ferricyanide), 1st Iox column
# [7] = compound + Fe^3+/Fe^2+, 1st Ered
# [8] = compound + Fe^3+/Fe^2+, 1st Ired
# [9] = compound + Fe^3+/Fe^2+, 2nd Eox
# [10] = compound + Fe^3+/Fe^2+, 2nd Iox column
# [11] = compound + Fe^3+/Fe^2+, 4th Eox column
# [12] = compound + Fe^3+/Fe^2+, 4th Iox column
# [13] = compound + Fe^3+/Fe^2+, 5th Eox
# [14] = compound + Fe^3+/Fe^2+, 5th Iox column
# [15] = compound alone 0.5 mM in 0.1 M HClO4, 2nd Eox
# [16] = compound alone 0.5 mM in 0.1 M HClO4, 2nd Ered column
# [17] = compound alone 0.5 mM in 0.1 M HClO4, 2nd Iox column
# [18] = compound alone 0.5 mM in 0.1 M HClO4, 2nd Ired
# [19] = compound + DPPH, 30 min, 2nd Eox
smiles,measurement,setting,value
"Cc1csc(N/N=C/c2ccc(O)cc2O)n1.Cl [Compound 5b, (E)-2-(2,4-dihydroxybenzylidene)-1-(4-methylthiazol-2-yl)hydrazin-1-ium chloride]",Eox (V),[1]; [5],0.152 V
same,Iox (μA),[1]; [6],5.57 μA
same,Ered (V),[1]; [7],0.093 V
same,Ired (μA),[1]; [8],−8.66 μA
same,Eox (V),[1]; [9],0.342 V
same,Ered (V),"[1]; compound + Fe^3+/Fe^2+, 2nd Ered column",0.323 V
same,Iox (μA),[1]; [10],22.3 μA
same,Ired (μA),"[1]; compound + Fe^3+/Fe^2+, 2nd Ired",−1.52 μA
same,Eox (V),"[1]; compound + Fe^3+/Fe^2+, 3rd Eox column",0.505 V
same,Iox (μA),"[1]; compound + Fe^3+/Fe^2+, 3rd Iox column",1.20 μA
same,Eox (V),[1]; [11],0.506 V
same,Iox (μA),[1]; [12],8.68 μA
same,Eox (V),[1]; [13],0.806 V
same,Iox (μA),[1]; [14],8.68 μA
same,Eox (V),[1]; [15],0.355 V
same,Ered (V),[1]; [16],0.327 V
same,Iox (μA),[1]; [17],15.68 μA
same,Ired (μA),[1]; [18],−1.56 μA
same,oxidation signal for TEMPO after incubation with the compound,[2],both the signal shift to higher oxidation potentials and its decrease
same,MIC,S. pyogenes ATCC 19615,> 100 µg/mL
same,MIC,E. coli ATCC 8739,> 100 µg/mL
same,MIC,P. aeruginosa ATCC 27853,31.2 µg/mL
same,MIC,[3],> 100 µg/mL
same,MIC,S. enterica ISM 83/37,> 100 µg/mL
same,MIC,S. aureus ATCC 25923,> 100 µg/mL
same,MIC,E. coli ATCC 25922,> 100 µg/mL
same,Iox (μA),"[4]; compound + DPPH, 30 min",33.3 μA
same,Eox (V),[4]; [19],0.349 V
same,Ered (V),"[4]; compound + DPPH, 30 min",0.145 V
same,Ired (μA),"[4]; compound + DPPH, 30 min",−7.56 μA
same,Iox (μA),[4]; compound alone,31.76 μA
same,Eox (V),"[4]; compound alone, 2nd Eox",0.357 V
same,Ered (V),[4]; compound alone,0.11 V
same,Ired (μA),[4]; compound alone,−10.26 μA
"C/C(=N\Nc1nc(-c2ccc(O)c(O)c2)cs1)c1ccc(O)cc1O.Cl [Compound 8a, (E)-2-(1-(2,4-dihydroxyphenyl)ethylidene)-1-(4-(3,4-dihydroxyphenyl)thiazol-2-yl)hydrazin-1-ium chloride]",scavenging effect on ferric ion,[1]; 0.5 mM ferricyanide + 0.5 mM compound,highest scavenging effect
same,Eox (V),[1]; [5],0.072 V
same,Iox (μA),[1]; [6],0.17 μA
same,Ered (V),[1]; [7],0.054 V
same,Ired (μA),[1]; [8],−8.37 μA
same,Eox (V),[1]; [9],0.186 V
same,Iox (μA),[1]; [10],17.73 μA
same,Eox (V),[1]; [11],0.452 V
same,Iox (μA),[1]; [12],12.93 μA
same,Eox (V),[1]; [13],0.87 V
same,Iox (μA),[1]; [14],18.64 μA
same,Eox (V),[1]; [15],0.195 V
same,Ered (V),[1]; [16],0.296 V
same,Iox (μA),[1]; [17],2.32 μA
same,Ired (μA),[1]; [18],−5.09 μA
same,Eox (V),"[1]; compound alone 0.5 mM in 0.1 M HClO4, 3rd Eox column",0.330 V
same,Iox (μA),"[1]; compound alone 0.5 mM in 0.1 M HClO4, 3rd Iox column",7.42 μA
same,Eox (V),"[1]; compound alone 0.5 mM in 0.1 M HClO4, 4th Eox column",0.460 V
same,Iox (μA),"[1]; compound alone 0.5 mM in 0.1 M HClO4, 4th Iox column",7.70 μA
same,Eox (V),"[1]; compound alone 0.5 mM in 0.1 M HClO4, 5th Eox",0.985 V
same,Iox (μA),"[1]; compound alone 0.5 mM in 0.1 M HClO4, 5th Iox column",3.45 μA
same,oxidation signal for TEMPO after incubation with the compound,[2],both the signal shift to higher oxidation potentials and its decrease
same,MIC,S. pyogenes ATCC 19615,> 100 µg/mL
same,MIC,E. coli ATCC 8739,> 100 µg/mL
same,MIC,P. aeruginosa ATCC 27853,7.8 µg/mL
same,MIC,[3],> 100 µg/mL
same,MIC,S. enterica ISM 83/37,> 100 µg/mL
same,MIC,S. aureus ATCC 25923,> 100 µg/mL
same,MIC,E. coli ATCC 25922,> 100 µg/mL
same,Iox (μA),"[4]; compound + DPPH, 30 min",11.18 μA
same,Eox (V),[4]; [19],0.311 V
same,Eox (V),"[4]; compound + DPPH, 30 min, 3rd Eox column",0.455 V
same,Iox (μA),"[4]; compound + DPPH, 30 min, 3rd Iox column",20.68 μA
same,Eox (V),"[4]; compound + DPPH, 30 min, 4th Eox column",0.908 V
same,Iox (μA),"[4]; compound + DPPH, 30 min, 4th Iox column",6.39 μA
same,Eox (V),"[4]; compound + DPPH, after 30 min of reaction, 1st Eox column",0.188 V
same,Iox (μA),"[4]; compound + DPPH, after 30 min of reaction, 1st Iox column",11.53 μA
same,Iox (μA),[4]; compound alone,6.97 μA
same,Eox (V),"[4]; compound alone 0.5 mM in 0.1 M HClO4, 1st Eox column",0.193 V
same,Iox (μA),"[4]; compound alone 0.5 mM in 0.1 M HClO4, 1st Iox column",3.56 μA
same,Eox (V),"[4]; compound alone, 2nd Eox",0.325 V
same,Ered (V),[4]; compound alone,0.278 V
same,Ired (μA),[4]; compound alone,−18.04 μA
same,Eox (V),"[4]; compound alone, 3rd Eox column",0.459 V
same,Iox (μA),"[4]; compound alone, 3rd Iox column",22.39 μA
same,Eox (V),"[4]; compound alone, 4th Eox column",0.935 V
same,Iox (μA),"[4]; compound alone, 4th Iox column",6.88 μA
